Measured values as given in patent US12685735B2 (Foghorn Therapeutics Inc., priority 2020, dated 2026).
Read-outs that look alike come from different tables or passages of the source.

How the values were obtained:
[1] = target: BRM (Homo sapiens, UniProt P51531); experiment: ATPase catalytic activity assay of BRM (ADP-Glo); type: biochemical; conditions: for IC50: read-out: BRM IC50 (μM)*
Procedure, shortened: (§1)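 Luminescence from ADP formed by BRM or BRG-1 ATPase was detected after a two-step ADP-Glo workup at room temperature. The first step, removing unconsumed ATP, took 40 min; the second, converting ADP to ATP for luciferase, took 60 min.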

[2] = target: BRG-1 (Homo sapiens, UniProt P51532); experiment: ATPase catalytic activity assay of BRG-1 (ADP-Glo); type: biochemical; conditions: for IC50: read-out: BRG1 IC50 (μM)*
Chain of BRG-1 (P51532 whole entry): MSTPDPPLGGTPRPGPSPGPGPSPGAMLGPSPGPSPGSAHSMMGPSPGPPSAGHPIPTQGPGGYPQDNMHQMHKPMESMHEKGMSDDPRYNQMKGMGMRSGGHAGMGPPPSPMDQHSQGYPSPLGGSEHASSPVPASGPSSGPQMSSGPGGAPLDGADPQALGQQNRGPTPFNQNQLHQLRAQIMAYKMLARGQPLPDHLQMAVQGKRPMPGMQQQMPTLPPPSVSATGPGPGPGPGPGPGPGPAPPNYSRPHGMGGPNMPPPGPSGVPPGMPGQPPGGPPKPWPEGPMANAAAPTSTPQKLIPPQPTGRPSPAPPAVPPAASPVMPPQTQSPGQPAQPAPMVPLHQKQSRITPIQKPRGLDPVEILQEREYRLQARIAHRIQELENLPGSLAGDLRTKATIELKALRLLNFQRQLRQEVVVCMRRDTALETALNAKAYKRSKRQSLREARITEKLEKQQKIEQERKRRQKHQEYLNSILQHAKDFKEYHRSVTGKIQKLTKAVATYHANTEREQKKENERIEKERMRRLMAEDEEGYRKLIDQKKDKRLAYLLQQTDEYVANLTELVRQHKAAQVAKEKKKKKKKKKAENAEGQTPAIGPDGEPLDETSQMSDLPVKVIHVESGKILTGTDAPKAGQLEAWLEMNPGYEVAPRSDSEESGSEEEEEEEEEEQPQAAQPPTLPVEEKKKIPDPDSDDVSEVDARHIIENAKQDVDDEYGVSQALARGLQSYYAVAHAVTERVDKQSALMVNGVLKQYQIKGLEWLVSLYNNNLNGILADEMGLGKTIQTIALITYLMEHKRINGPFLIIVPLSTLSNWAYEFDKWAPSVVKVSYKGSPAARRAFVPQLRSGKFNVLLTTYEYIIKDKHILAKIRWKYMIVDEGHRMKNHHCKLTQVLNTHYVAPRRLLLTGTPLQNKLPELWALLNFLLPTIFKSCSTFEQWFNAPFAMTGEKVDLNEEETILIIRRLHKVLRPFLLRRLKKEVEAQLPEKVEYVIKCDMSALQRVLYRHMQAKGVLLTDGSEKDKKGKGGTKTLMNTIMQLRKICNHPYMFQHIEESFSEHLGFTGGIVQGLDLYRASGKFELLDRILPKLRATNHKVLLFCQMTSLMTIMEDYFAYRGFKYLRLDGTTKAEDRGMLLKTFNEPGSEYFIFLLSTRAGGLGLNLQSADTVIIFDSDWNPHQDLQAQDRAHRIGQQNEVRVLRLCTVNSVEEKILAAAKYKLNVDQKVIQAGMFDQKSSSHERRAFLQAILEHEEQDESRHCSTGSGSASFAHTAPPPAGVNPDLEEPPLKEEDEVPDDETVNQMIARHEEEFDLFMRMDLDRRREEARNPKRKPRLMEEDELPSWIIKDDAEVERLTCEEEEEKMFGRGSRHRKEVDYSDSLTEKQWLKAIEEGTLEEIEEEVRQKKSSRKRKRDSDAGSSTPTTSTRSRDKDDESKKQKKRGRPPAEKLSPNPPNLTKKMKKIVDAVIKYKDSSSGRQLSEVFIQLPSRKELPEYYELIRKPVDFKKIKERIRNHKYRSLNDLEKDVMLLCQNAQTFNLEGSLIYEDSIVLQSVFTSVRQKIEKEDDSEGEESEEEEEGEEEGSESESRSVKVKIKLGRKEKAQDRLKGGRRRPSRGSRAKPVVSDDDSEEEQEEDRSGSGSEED
Procedure, shortened: as §1

[3] = ATPase catalytic activity, ADP-Glo
[4] = ATPase catalytic activity, ADP-Glo, read-out: BRG1 Max % Inhibition

Chain of BRM (P51531 whole entry): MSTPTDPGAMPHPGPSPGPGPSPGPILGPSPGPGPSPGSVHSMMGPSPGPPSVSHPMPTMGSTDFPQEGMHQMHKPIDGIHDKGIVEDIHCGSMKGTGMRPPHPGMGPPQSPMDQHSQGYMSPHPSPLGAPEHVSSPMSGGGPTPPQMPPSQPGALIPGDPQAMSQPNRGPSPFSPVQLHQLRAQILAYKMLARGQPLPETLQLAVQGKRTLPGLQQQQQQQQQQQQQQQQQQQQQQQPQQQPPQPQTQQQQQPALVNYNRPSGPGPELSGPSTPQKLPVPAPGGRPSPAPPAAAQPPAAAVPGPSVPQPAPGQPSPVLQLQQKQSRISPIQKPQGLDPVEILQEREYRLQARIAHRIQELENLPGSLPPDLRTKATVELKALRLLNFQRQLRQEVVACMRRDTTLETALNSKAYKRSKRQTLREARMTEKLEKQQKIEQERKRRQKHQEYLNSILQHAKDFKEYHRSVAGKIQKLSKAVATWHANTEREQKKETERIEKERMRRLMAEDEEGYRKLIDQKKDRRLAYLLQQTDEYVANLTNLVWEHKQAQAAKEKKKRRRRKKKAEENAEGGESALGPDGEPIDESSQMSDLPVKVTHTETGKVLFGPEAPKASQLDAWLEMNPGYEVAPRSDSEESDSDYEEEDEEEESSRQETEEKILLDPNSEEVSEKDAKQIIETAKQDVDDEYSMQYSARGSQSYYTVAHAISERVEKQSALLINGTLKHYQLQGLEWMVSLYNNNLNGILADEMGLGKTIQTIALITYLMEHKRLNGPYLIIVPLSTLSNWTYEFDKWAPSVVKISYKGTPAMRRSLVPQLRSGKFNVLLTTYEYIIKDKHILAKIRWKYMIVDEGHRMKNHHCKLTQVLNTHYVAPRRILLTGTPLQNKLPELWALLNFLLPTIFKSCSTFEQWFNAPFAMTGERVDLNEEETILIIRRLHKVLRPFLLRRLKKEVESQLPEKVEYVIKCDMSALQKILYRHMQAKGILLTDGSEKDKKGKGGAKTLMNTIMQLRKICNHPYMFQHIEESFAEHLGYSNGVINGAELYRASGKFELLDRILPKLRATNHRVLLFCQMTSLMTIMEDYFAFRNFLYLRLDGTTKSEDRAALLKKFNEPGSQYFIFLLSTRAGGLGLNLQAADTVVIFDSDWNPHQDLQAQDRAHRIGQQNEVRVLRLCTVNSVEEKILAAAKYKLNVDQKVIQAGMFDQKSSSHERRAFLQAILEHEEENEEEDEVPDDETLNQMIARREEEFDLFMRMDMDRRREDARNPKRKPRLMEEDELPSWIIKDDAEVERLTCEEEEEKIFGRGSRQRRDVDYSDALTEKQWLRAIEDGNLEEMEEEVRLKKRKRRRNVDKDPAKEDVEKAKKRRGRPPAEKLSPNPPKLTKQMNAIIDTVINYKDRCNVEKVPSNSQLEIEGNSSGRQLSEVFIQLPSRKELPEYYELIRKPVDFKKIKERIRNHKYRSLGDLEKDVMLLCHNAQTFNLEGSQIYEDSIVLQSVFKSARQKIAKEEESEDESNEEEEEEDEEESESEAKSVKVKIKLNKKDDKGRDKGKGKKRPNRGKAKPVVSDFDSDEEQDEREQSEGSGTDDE

| BRM Max % Inhibition [1] [%] | IC50 [1] [µM] | IC50 [2, 3] [µM] | Emax [2, 4] [%] | Emax ([2]; read-out: BRG1 Max % Inhibition, ATPase catalytic activity, ADP-Glo) [%] | SMILES |
| --- | --- | --- | --- | --- | --- |
| >95 | < 0.1 | < 0.1 | > 95 | – | Cc1cc(-c2cccc(-c3csc(NC(=O)CNC(=O)c4ccc5c(c4)[C@](C)(C#N)CC5)n3)n2)ncn1 [Compound 267, (3R)-3-cyano-3-methyl-N-[2-[[4-[6-(6-methylpyrimidin-4-yl)-2-pyridyl]thiazol-2-yl]amino]-2-oxo-ethyl]indane-5-carboxamide] |
| >80 | 0.1 to 1 | 1 to 5 | > 50 | – | Cc1nccc(-c2cccc(-c3csc(NC(=O)CNC(=O)c4ccc5c(c4)[C@@](C)(C#N)CC5)n3)n2)n1 [Compound 268, (3S)-3-cyano-3-methyl-N-[2-[[4-[6-(2-methylpyrimidin-4-yl)-2-pyridyl]thiazol-2-yl]amino]-2-oxo-ethyl]indane-5-carboxamide] |
| >90 | 0.1 to 1 | > 5 | > 90 | – | COc1cccc(-c2csc(NC(=O)CNC(=O)c3cc(F)c4c(c3)[C@@](C)(C#N)COC4)n2)c1 [Compound 269, (S)-4-cyano-8-fluoro-N-(2-((4-(3-methoxyphenyl)thiazol-2-yl)amino)-2-oxoethyl)-4-methylisochromane-6-carboxamide] |
| >95 | < 0.1 | 0.1 to 1 | > 95 | – | COc1cccc(-c2csc(NC(=O)CNC(=O)c3cc(F)c4c(c3)[C@](C)(C#N)COC4)n2)c1 [Compound 270, (R)-4-cyano-8-fluoro-N-(2-((4-(3-methoxyphenyl)thiazol-2-yl)amino)-2-oxoethyl)-4-methylisochromane-6-carboxamide] |
| >85 | 0.1 to 1 | 1 to 5 | > 85 | – | CC1OCCc2cc(C(=O)NCC(=O)Nc3nc(-c4cccc(N5C[C@@H](C)O[C@@H](C)C5)n4)cs3)ccc21 (stereo partly drawn) [Compound 271, N-(2-((4-(6-((cis)-2,6-dimethylmorpholino)pyridin-2-yl)thiazol-2-yl)amino)-2-oxoethyl)-1-methylisochromane-6-carboxamide] |
| >95 | < 0.1 | < 0.1 | > 95 | – | C[C@@H]1CN(c2cccc(-c3csc(NC(=O)CNC(=O)c4ccc5c(c4)[C@](F)(C(F)F)CCO5)n3)c2)C[C@H](C)O1 [Compound 274, (S)-4-(difluoromethyl)-N-(2-((4-(3-((cis)-2,6-dimethylmorpholino)phenyl)thiazol-2-yl)amino)-2-oxoethyl)-4-fluorochromane-6-carboxamide] |
| >95 | < 0.1 | 0.1 to 1 | > 95 | – | C[C@@H]1CN(c2cccc(-c3csc(NC(=O)CNC(=O)c4ccc5c(c4)[C@@](F)(C(F)F)CCO5)n3)c2)C[C@H](C)O1 [Compound 275, (R)-4-(difluoromethyl)-N-(2-((4-(3-((cis)-2,6-dimethylmorpholino)phenyl)thiazol-2-yl)amino)-2-oxoethyl)-4-fluorochromane-6-carboxamide] |
| >95 | < 0.1 | < 0.1 | > 95 | – | O=C(CNC(=O)c1ccc2c(c1)[C@](F)(C(F)F)COC2)Nc1nc(-c2cc(F)cc(N3CCC3)c2)cs1 [Compound 276, (R)-N-(2-((4-(3-(azetidin-1-yl)-5-fluorophenyl)thiazol-2-yl)amino)-2-oxoethyl)-4-(difluoromethyl)-4-fluoroisochromane-6-carboxamide] |
| >95 | < 0.1 | < 0.1 | > 95 | – | O=C(CNC(=O)c1ccc2c(c1)[C@@](F)(C(F)F)COC2)Nc1nc(-c2cc(F)cc(N3CCC3)c2)cs1 [Compound 277, (S)-N-(2-((4-(3-(azetidin-1-yl)-5-fluorophenyl)thiazol-2-yl)amino)-2-oxoethyl)-4-(difluoromethyl)-4-fluoroisochromane-6-carboxamide] |
| >90 | 0.1 to 1 | > 5 | – | > 90 | COc1cccc(-c2csc(NC(=O)CNC(=O)c3ccc4c(c3)[C@@](C)(F)CCOC4)n2)c1 [Compound 278, (S)-5-fluoro-N-(2-((4-(3-methoxyphenyl)thiazol-2-yl)amino)-2-oxoethyl)-5-methyl-1,3,4,5-tetrahydrobenzo[c]oxepine-7-carboxamide] |
| >90 | 0.1 to 1 | 0.1 to 1 | > 90 | – | COc1cccc(-c2csc(NC(=O)CNC(=O)c3ccc4c(c3)[C@](C)(F)CCOC4)n2)c1 [Compound 279, (R)-5-fluoro-N-(2-((4-(3-methoxyphenyl)thiazol-2-yl)amino)-2-oxoethyl)-5-methyl-1,3,4,5-tetrahydrobenzo[c]oxepine-7-carboxamide] |
| >90 | 0.1 to 1 | 1 to 5 | > 90 | – | COC(=O)N1CCC(c2csc(NC(=O)CNC(=O)c3ccc4c(c3)[C@](C)(F)COC4)n2)CC1 [Compound 281, methyl (S)-4-(2-(2-(4-fluoro-4-methylisochromane-6-carboxamido)acetamido)thiazol-4-yl)piperidine-1-carboxylate] |
| >95 | < 0.1 | 0.1 to 1 | > 95 | – | C[C@@H]1CN(c2cccc(-c3csc(NC(=O)CNC(=O)c4ccc5c(c4)C(C)(C)COC5)n3)n2)C[C@H](C)O1 [Compound 282, N-(2-((4-(6-((cis)-2,6-dimethylmorpholino)pyridin-2-yl)thiazol-2-yl)amino)-2-oxoethyl)-4,4-dimethylisochromane-6-carboxamide] |
| >95 | < 0.1 | 0.1 to 1 | > 95 | – | C[C@@H]1CN(c2cccc(-c3csc(NC(=O)CNC(=O)c4cccc([C@]5(C(F)F)CCOC5)c4)n3)c2)C[C@H](C)O1 [Compound 285] |
| >95 | < 0.1 | 1 to 5 | > 95 | – | C[C@@H]1CN(c2cccc(-c3csc(NC(=O)CNC(=O)c4cccc([C@@]5(C(F)F)CCOC5)c4)n3)c2)C[C@H](C)O1 [Compound 286, 3-((S)-3-(difluoromethyl)tetrahydrofuran-3-yl)-N-(2-((4-(3-((cis)-2,6-dimethylmorpholino)phenyl)thiazol-2-yl)amino)-2-oxoethyl)benzamide] |
| >75 | 0.1 to 1 | > 5 | > 75 | – | CN1C[C@](C)(C#N)c2cc(C(=O)NCC(=O)Nc3nc(-c4cc(F)cc(N5CCC5)c4)cs3)ccc21 [Compound 288, (R)-N-(2-((4-(3-(azetidin-1-yl)-5-fluorophenyl)thiazol-2-yl)amino)-2-oxoethyl)-3-cyano-1,3-dimethylindoline-5-carboxamide] |
| >95 | < 0.1 | < 0.1 | > 95 | – | CN1C[C@@](C)(C#N)c2cc(C(=O)NCC(=O)Nc3nc(-c4cc(F)cc(N5CCC5)c4)cs3)ccc21 [Compound 289, (S)-N-(2-((4-(3-(azetidin-1-yl)-5-fluorophenyl)thiazol-2-yl)amino)-2-oxoethyl)-3-cyano-1,3-dimethylindoline-5-carboxamide] |
| >90 | 0.1 to 1 | > 5 | > 90 | – | C[C@@H]1CN(c2cccc(-c3csc(NC(=O)CNC(=O)c4cccc([C@]5(C(F)F)CCCO5)c4)n3)c2)C[C@H](C)O1 [Compound 291, 3-((S)-2-(difluoromethyl)tetrahydrofuran-2-yl)-N-(2-((4-(3-((cis)-2,6-dimethylmorpholino)phenyl)thiazol-2-yl)amino)-2-oxoethyl)benzamide] |
| >95 | < 0.1 | 0.1 to 1 | > 95 | – | C[C@@]1(C#N)COCc2ccc(C(=O)NCC(=O)Nc3nc(-c4cccc([C@@]56CCOC[C@@H]5C6)n4)cs3)cc21 [Compound 292, (R)-N-(2-((4-(6-((1R,6S)-3-oxabicyclo[4.1.0]heptan-6-yl)pyridin-2-yl)thiazol-2-yl)amino)-2-oxoethyl)-4-cyano-4-methylisochromane-6-carboxamide] |
| >95 | < 0.1 | 0.1 to 1 | > 95 | – | C[C@@]1(C#N)COCc2ccc(C(=O)NCC(=O)Nc3nc(-c4cccc([C@]56CCOC[C@H]5C6)n4)cs3)cc21 [Compound 293, (R)-N-(2-((4-(6-((1S,6R)-3-oxabicyclo[4.1.0]heptan-6-yl)pyridin-2-yl)thiazol-2-yl)amino)-2-oxoethyl)-4-cyano-4-methylisochromane-6-carboxamide] |
| >95 | < 0.1 | 0.1 to 1 | > 95 | – | C[C@@]1(C#N)COCc2ccc(C(=O)NCC(=O)Nc3nc(-c4cccc([C@@]56CCOC[C@@H]5C6)c4)cs3)cc21 [Compound 294, (R)-N-(2-((4-(3-((1R,6S)-3-oxabicyclo[4.1.0]heptan-6-yl)phenyl)thiazol-2-yl)amino)-2-oxoethyl)-4-cyano-4-methylisochromane-6-carboxamide] |
| >95 | < 0.1 | 0.1 to 1 | > 95 | – | C[C@@]1(C#N)COCc2ccc(C(=O)NCC(=O)Nc3nc(-c4cccc([C@]56CCOC[C@H]5C6)c4)cs3)cc21 [Compound 295, (R)-N-(2-((4-(3-((1S,6R)-3-oxabicyclo[4.1.0]heptan-6-yl)phenyl)thiazol-2-yl)amino)-2-oxoethyl)-4-cyano-4-methylisochromane-6-carboxamide] |
| >95 | < 0.1 | < 0.1 | > 95 | – | C[C@@H]1CN(c2cccc(-c3csc(NC(=O)CNC(=O)c4ccc5c(c4)CCCOC5)n3)n2)C[C@H](C)O1 [Compound 296, N-(2-((4-(6-((cis)-2,6-dimethylmorpholino)pyridin-2-yl)thiazol-2-yl)amino)-2-oxoethyl)-1,3,4,5-tetrahydrobenzo[c]oxepine-7-carboxamide] |
